# Earlier results in patent publication US5292505A, “Sulphated vinyl polymer in composition for treating retroviral infections” (Stichting Rega VZW, priority 1989, dated 1994).
# Legend:
# [1] = system: Molt-4 cells co-cultured with HIV-1-infected HUT-78 cells; conditions: statement without own test
# AIDS = AIDS patients, Fischl et al
compound,measurement,setting,value
"Cc1cn([C@H]2C[C@H](N=[N+]=[N-])[C@@H](CO)O2)c(=O)[nH]c1=O [azidothymidine, 3'-azido-2',3'-dideoxythymidine]",inhibition of giant cell formation,[1],does not show such effect
same,clinical effectiveness,AIDS,clinically effective
